Where “and” joins values, the source holds several entries; their conditions need not be identical. Equal entries are not always repeated. Entries after “also recorded” stand apart in the source; their conditions may differ. Where a SMILES comes first, the peptide text is derived from it. [ ]: non-standard residue; d: D form. pY = N[C@@H](Cc1ccc(OP(=O)(O)O)cc1)C(=O)O
Experiments:
[1] = molecular target: T1, Shc PTB domain (Homo sapiens, UniProt P29353); assay: Surface plasmon resonance competition: GST-Shc PTB domain binding to immobilized middle T antigen phosphopeptide; conditions: IC50, inhibition of binding of the Shc PTB domain to the middle T antigen phosphopeptide, BIAcore, soluble competing phosphopeptide
T1 construct: the PTB domain fusion construct comprises amino acids 1-225 of human p52 Shc; made in house; host or cells: E. coli
T1 sequence (P29353 1-225 isoform P29353-2): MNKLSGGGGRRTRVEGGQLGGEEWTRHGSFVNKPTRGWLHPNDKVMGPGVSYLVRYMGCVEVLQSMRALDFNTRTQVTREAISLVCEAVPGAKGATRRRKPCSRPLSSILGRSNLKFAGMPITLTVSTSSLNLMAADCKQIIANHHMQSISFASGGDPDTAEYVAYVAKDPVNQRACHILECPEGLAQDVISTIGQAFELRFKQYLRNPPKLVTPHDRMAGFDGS
Protocol: Surface plasmon resonance—experiments were done with a BIAcore instrument (Pharmacia). A phosphopeptide corresponding to the NPXY sequence in the polyomavirus middle T antigen (mT) (LSLLSNPTpYSVNSK) was absorbed to the surface of a biosensor chip. Binding of soluble GST-Shc PTB domain fusion protein to the mT peptide was measured in the presence or absence of competing soluble phosphopeptides based on the sequences around Tyr 513 of DDR1b or Tyr 490 of the NGFR (HIIENPQpYFSD) (21).
Experiments were done with a BIAcore instrument (Pharmacia). A phosphopeptide corresponding to the NPXY sequence in the polyomavirus middle T antigen (LSLLSNPTpYSVMRSK) was absorbed to the surface of a biosensor chip. Binding of soluble GST-Shc PTB domain fusion protein to the middle T peptide was measured in presence or absence of competing soluble phosphopeptides based on the sequences around tyrosine 513 of DDR1b (ALLLSNPApYRLLLA) or tyrosine 490 of the NGF receptor (HIIENPQpYFSD).

[2] = test system: DDR receptors; assay: Effect of other agents on DDR activity / collagen-induced DDR tyrosine phosphorylation; type: cell-based; conditions: for effect on DDR activity: collagen-associated molecules
[3] = molecular target: T2, DDR1b (Homo sapiens, UniProt Q08345); assay: Tyrosine phosphorylation of endogenous DDR1b in carcinoma cells (T-47D; A431), immunoprecipitation and anti-phosphotyrosine blot; type: cell-based; conditions: T-47D, 90 min; collagens/gelatin 10 μg/ml, orthovanadate 1 mM
T2 construct: endogenous in cells; host or cells: T-47D human mammary carcinoma cells (A431 also named)
Excerpt: To investigate the effects of collagen on cells that express endogenous DDR tyrosine kinases, the mammary carcinoma cell line T-47D was employed. Previous results have shown that DDR1 is highly expressed in human carcinoma cell lines, in particular, the breast cancer cell lines BT-20, MDA-MB-175 and T-47D (1) (Perez et al., 1996). […] The time course of endogenous DDR1b tyrosine phosphorylation in T-47D cells was even slower than in 293 cells, with maximal activation being achieved only after stimulation for 18 hours.
To further investigate the role of different types of collagen in the activation of DDR1 and DDR2, collagen types I, II, III and V purified from human placenta and collagen type II from bovine tracheal cartilage were obtained. To test their ability to induce receptor tyrosine phosphorylation, 293 cells overexpressing DDR1 or DDR2 were employed. […] The various types of collagen were also tested for their ability to stimulate tyrosine phosphorylation of endogenous DDR1b present in T-47D cells. For this purpose, DDR1b was immunoprecipitated from lysates of stimulated T-47D cells and analyzed by Western blotting with anti-phosphotyrosine antibodies. […] As previously shown, DDR1 tyrosine phosphorylation could also be activated by treating cells with 1 mM orthovanadate, an inhibitor of tyrosine phosphatases. Furthermore, gelatin which contains heat denatured collagen was tested for its capacity to induce DDR1b tyrosine phosphorylation.
Integrins of the type α1β1 and α2β1 have long been known to be receptors for collagen. Therefore, tests were conducted to determine if these integrins are somehow involved in the activation of DDR1b. The mammary carcinoma cell line T-47D, which endogenously expresses the b-isoform of DDR1, was used. Monoclonal antibodies directed against the extracellular domains of integrins can block binding to collagen and therefore signaling of integrins. T-47D cells were treated with antibody A2-IIE10 against α2-integrin and antibody DE9 against β1-integrin (both from Upstate Biotechnology) in the absence or presence of 10 μg/ml collagen type I overnight. DDR1b or Shc were immunoprecipitated from cellular lysates and analyzed by Western blotting with antiphosphotyrosine antibody.
DDR1b and DDR2 were transfected into 293 cells and were stimulated with 10 µg/ml mouse collagen type I for different periods of time. (FIG. 9A and FIG. 9B) Total cellular lysates were probed with antiphosphotyrosine antibody. Maximal activation is seen 90 min after stimulation of DDR1b (FIG. 9A) and DDR2 (FIG. 9B). (FIG. 9C) Human mammary carcinoma T-47D cells were cultivated on 10 cm dishes to confluence and starved in 0.5% serum overnight. Cells were stimulated with collagen type I for various periods of time and lysed. DDR1b was immunoprecipitated from the lysates and analyzed by Western blotting with antiphosphotyrosine antibody. Maximal phosphorylation of DDR1b is seen after stimulation for 18 h. An unidentified, tyrosine phosphorylated protein with an apparent molecular weight of 115 kDa is copurified in the immunoprecipitations. […] Prolonged stimulation with collagen increases the processing of DDR1b in T-47D cells, indicated by an additional 62 kDa band. (FIGS. 9E and 9F) DDR1b was immunoprecipitated from overexpressing 293 cells (E) and T-47D (FIG. 9F) cells and subjected to an in vitro kinase reaction. The incorporation of [^32P]-phosphate is monitored by SDS-PAGE followed by autoradiograpy.

[4] = molecular target: T3, DDR2 (Homo sapiens, UniProt Q16832); assay: DDR2 tyrosine phosphorylation in transfected 293 cells (anti-phosphotyrosine Western blot); type: cell-based; conditions: 90 min; for ligand activity: induction of DDR2 tyrosine phosphorylation: soluble agent added to medium of transfected 293 cells, 10 μg/ml
T3 construct: expressed in transfected cells; host or cells: 293 cells, CMV-based expression vector
T3 sequence (Q16832 22-855): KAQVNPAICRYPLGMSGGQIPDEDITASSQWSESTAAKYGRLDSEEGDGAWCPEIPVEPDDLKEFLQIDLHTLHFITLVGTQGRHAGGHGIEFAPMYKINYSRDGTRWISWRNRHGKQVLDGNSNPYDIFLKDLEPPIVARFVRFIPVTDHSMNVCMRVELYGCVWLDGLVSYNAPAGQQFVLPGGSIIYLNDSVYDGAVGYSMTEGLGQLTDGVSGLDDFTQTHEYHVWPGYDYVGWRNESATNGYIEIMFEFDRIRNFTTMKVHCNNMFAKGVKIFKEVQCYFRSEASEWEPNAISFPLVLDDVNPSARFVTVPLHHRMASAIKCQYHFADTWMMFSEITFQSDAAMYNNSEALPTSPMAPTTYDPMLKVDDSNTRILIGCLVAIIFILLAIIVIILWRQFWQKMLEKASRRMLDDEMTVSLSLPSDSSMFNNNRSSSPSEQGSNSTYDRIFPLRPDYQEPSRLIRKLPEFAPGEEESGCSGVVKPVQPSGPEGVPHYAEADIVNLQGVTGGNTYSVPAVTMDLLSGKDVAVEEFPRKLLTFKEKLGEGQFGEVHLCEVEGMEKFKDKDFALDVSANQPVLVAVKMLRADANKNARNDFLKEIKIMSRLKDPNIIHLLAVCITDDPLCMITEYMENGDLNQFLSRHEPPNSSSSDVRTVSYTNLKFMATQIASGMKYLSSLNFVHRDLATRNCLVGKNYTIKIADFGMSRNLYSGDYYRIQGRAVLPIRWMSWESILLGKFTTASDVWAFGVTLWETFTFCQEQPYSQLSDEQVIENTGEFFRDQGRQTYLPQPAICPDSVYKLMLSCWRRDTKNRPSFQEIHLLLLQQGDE
Protocol: (§1) Semiconfluent 293 cells were transfected by calcium-phosphate precipitation with a cytomegalovirus-based expression vector. Sixteen hours later, cells were transferred to serum-free media for another 24 h. Cells were stimulated with 10 μg/ml collagen for 90 min and lysed with 1% Triton-X 100, 50 mM HEPES (pH 7.5), 150 mM NaCl, 1.5 mM MgCl2, 5 mM EGTA, 5 mM EDTA, 10% glycerol, 10 mM NaF, 1 mM phenylmethylsulfonyl fluoride (PMSF), 1 mM Na-orthovanadate, 10 μg/ml aprotinin. The cellular lysates were centrifuged 10 min at 4° C. and 13,000 rpm and aliquots of the supernatant were subjected to SDS-PAGE or further analyzed by immunoprecipitation with specific antibodies for 3 h at 4° C. on a rotating wheel. The immunocomplex was washed three times with 20 mM HEPES (pH 7.5), 150 mM NaCl, 0.1% Triton, 10% glycerol and analyzed by SDS-PAGE. Proteins were transferred to nitrocellulose membrane (Schleicher & Schuell) and immunoblotted with antibodies diluted 1:500 in 50 mM Tris (pH 7.5), 150 mM NaCl, 5 mM EDTA, 0.05% gelatin overnight. Western blots were developed using horseradish peroxidase-coupled secondary antibody (Biorad) and enhanced chemiluminescence (Amersham). For reprobing, the membrane was stripped in 70 mM Tris (pH 6.8), 2% SDS, 0.1% P-mercaptoethanol at 55° C. for 30 min. For in vitro kinase assays, immunoprecipitates were washed twice with in 40 mM HEPES (pH 7.5), 20 mM MgCl2, 2 mM MnCl2, 100 μM orthovanadate, 5 μM dATP and incubated with 5 μCi [γ-^32P] ATP at 30° C. for 20 min. The products of the kinase reaction were monitored by SDS-PAGE and autoradiography.

[5] = molecular target: T4, DDR1 (Homo sapiens, UniProt Q08345); assay: DDR1 tyrosine phosphorylation in transfected 293 cells (anti-phosphotyrosine Western blot); type: cell-based; conditions: 90 min; for ligand activity: induction of DDR1 (DDR1b) tyrosine phosphorylation: soluble agent added to medium of transfected 293 cells, 10 μg/ml
T4 construct: expressed in transfected cells; host or cells: human embryonic kidney 293 cells, CMV-based expression vector
Protocol: as §1
To identify possible sources for the ligand of DDR1, an in vivo screening system was established. Human embryonic kidney fibroblast 293 cells were transiently transfected with expression plasmids coding for DDR1b. Growth-arrested cells were then stimulated with various agents and monitored for receptor activation by anti-phosphotyrosine Western blotting of total cellular lysates. […] The increase of DDR1b autophosphorylation was dependent on the concentration of matrigel added to the cells (FIG. 7A).

[6] = transfected 293 cells plated on collagen-coated dishes

T2 sequence (Q08345 19-913): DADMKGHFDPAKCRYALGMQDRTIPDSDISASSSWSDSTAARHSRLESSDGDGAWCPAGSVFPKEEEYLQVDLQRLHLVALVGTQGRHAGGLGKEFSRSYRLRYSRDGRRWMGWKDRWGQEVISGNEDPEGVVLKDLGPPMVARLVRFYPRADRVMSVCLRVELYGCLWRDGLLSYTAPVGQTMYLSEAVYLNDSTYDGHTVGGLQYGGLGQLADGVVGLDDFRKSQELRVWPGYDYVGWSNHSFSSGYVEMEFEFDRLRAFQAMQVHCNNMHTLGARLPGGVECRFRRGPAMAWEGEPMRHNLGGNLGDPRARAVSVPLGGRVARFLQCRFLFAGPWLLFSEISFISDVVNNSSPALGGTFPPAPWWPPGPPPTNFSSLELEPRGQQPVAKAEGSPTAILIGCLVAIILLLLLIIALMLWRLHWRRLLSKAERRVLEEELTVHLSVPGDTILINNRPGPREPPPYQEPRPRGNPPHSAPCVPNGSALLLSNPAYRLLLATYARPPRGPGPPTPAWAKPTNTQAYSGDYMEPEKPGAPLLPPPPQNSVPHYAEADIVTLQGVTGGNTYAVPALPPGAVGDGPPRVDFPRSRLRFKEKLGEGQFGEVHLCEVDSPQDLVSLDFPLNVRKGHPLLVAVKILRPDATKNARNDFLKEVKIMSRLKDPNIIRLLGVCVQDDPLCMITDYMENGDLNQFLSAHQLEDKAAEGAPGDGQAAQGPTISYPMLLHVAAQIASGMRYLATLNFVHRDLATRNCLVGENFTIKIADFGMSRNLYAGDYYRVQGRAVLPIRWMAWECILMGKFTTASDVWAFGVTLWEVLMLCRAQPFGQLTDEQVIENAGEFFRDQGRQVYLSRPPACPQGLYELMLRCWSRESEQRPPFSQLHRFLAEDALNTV
T4 sequence (Q08345 19-913): as above

Compound: CC[C@H](C)[C@H](NC(=O)[C@@H](NC(=O)[C@@H](N)Cc1c[nH]cn1)[C@@H](C)CC)C(=O)N[C@@H](CCC(=O)O)C(=O)N[C@@H](CC(N)=O)C(=O)N1CCC[C@H]1C(=O)N[C@@H](CCC(N)=O)C(=O)N[C@@H](Cc1ccc(OP(=O)(O)O)cc1)C(=O)N[C@@H](Cc1ccccc1)C(=O)N[C@@H](CO)C(=O)N[C@@H](CC(=O)O)C(=O)O [NGF receptor phosphopeptide, HIIENPQpYFSD] (H-HIIENPQ[pY]FSD-OH; N-terminus and C-terminus assumed)
- IC50 [1]: ~100 nM and 70 nM

Compound: C[C@@H]1C[C@@H]([C@H](O)CC2CC(=O)NC(=O)C2)C(=O)[C@@H](C)C1 [cycloheximide, reference compound]
- effect on ability of collagen to induce DDR tyrosine phosphorylation ([2]; treatment of cells, data not shown): not inhibited

Compound: [O]=[V]([O-])([O-])[O-] [orthovanadate, reference compound]
- tyrosine phosphorylation of endogenous DDR1b in T-47D cells [3]: activated

Compound: chondroitin-sulphate A
- effect on DDR activity [2]: no effect

Compound: collagen type II: collagen type II from bovine tracheal cartilage
- ligand activity: induction of DDR2 tyrosine phosphorylation [4]: moderate activity
- tyrosine phosphorylation of endogenous DDR1b in T-47D cells [3]: lower, but still detectable

Compound: collagen type III: collagen type III purified from human placenta
- ligand activity: induction of DDR2 tyrosine phosphorylation [4]: highly potent ligands; also recorded: highly activated
- DDR2 tyrosine phosphorylation on immobilized collagen [4, 6]: triggered
- tyrosine phosphorylation of endogenous DDR1b in T-47D cells [3]: lower, but still detectable
- ligand activity: induction of DDR1 (DDR1b) tyrosine phosphorylation [5]: equally good ligands
- DDR1b tyrosine phosphorylation on immobilized collagen [5, 6]: further increased

Compound: fibronectin
- ligand activity: induction of DDR1 (DDR1b) tyrosine phosphorylation [5]: neither

Compound: gelatin
- tyrosine phosphorylation of endogenous DDR1b in T-47D cells [3]: did not induce an increase

Compound: heparin
- effect on DDR activity [2]: no effect

Compound: laminin
- ligand activity: induction of DDR1 (DDR1b) tyrosine phosphorylation [5]: neither
